US20060093617A1, “Peptides for inducing a CTL and/or HTL response to hepatitis C virus” (Innogenetics, N.V., priority 2004, published 2006)
Where a SMILES comes first, the peptide text is derived from it.

Target: HLA-A02 (Homo sapiens, UniProt P04439, D140Y/D185E/D98H/E176V/E277Q/G131W/G231S/I119V/I121R/I166T/I218V/L300P/L318F/N151K/N90K/P208A/P217A/Q86G/Q94H/R138H/R169H/T345S)
Experiment: Competition binding assay using soluble HLA class I

Compound | IC50 [nM] | Ki [nM]
CC(C)C[C@H](NC(=O)[C@H](CS)NC(=O)[C@H](CO)NC(=O)[C@H](CC(C)C)NC(=O)[C@H](CC(C)C)NC(=O)[C@H](C)NC(=O)[C@H](CC(C)C)NC(=O)[C@H](CC(C)C)NC(=O)[C@@H](N)Cc1ccccc1)C(=O)O | 136 | 136
CC(C)C[C@H](NC(=O)[C@H](C)NC(=O)[C@H](CC(C)C)NC(=O)[C@H](CC(C)C)NC(=O)[C@@H](N)Cc1ccccc1)C(=O)N[C@@H](CC(C)C)C(=O)N[C@@H](CO)C(=O)N[C@@H](CS)C(=O)N[C@@H](CC(C)C)C(=O)N[C@H](C(=O)O)[C@@H](C)O | 132 | 132
CC(C)C[C@H](NC(=O)[C@H](CC(C)C)NC(=O)[C@H](Cc1c[nH]c2ccccc12)NC(=O)CNC(=O)[C@H](C)NC(=O)[C@H](Cc1c[nH]c2ccccc12)NC(=O)CNC(=O)[C@H](CC(C)C)NC(=O)CN)C(=O)O | – | 27
CC[C@H](C)[C@H](NC(=O)[C@H](CS)NC(=O)CNC(=O)[C@H](CC(C)C)NC(=O)[C@H](CC(C)C)NC(=O)CN)C(=O)N[C@H](C(=O)N[C@H](C(=O)N[C@@H](CO)C(=O)N[C@@H](CC(C)C)C(=O)O)[C@@H](C)O)[C@@H](C)CC | 26 | 26
CC[C@H](C)[C@H](N)C(=O)N[C@@H](CCSC)C(=O)N[C@@H](Cc1ccc(O)cc1)C(=O)N[C@@H](C)C(=O)N1CCC[C@H]1C(=O)N[C@H](C(=O)N[C@@H](CC(C)C)C(=O)N[C@@H](Cc1c[nH]c2ccccc12)C(=O)N[C@@H](C)C(=O)O)[C@@H](C)O | 46 | 46
CC[C@H](C)[C@H](NC(=O)[C@@H](NC(=O)[C@H](CC(C)C)NC(=O)[C@H](CS)NC(=O)[C@H](CO)NC(=O)[C@H](CC(C)C)NC(=O)[C@@H](N)CC(C)C)[C@@H](C)O)C(=O)N1CCC[C@H]1C(=O)N[C@@H](C)C(=O)O | 12 | 12
CC(C)C[C@H](NC(=O)[C@@H](NC(=O)[C@@H](N)CC(C)C)C(C)C)C(=O)N[C@@H](CC(N)=O)C(=O)N1CCC[C@H]1C(=O)N[C@@H](CO)C(=O)N[C@H](C(=O)N[C@@H](C)C(=O)N[C@@H](C)C(=O)O)C(C)C | – | 1680
CC[C@H](C)[C@H](NC(=O)[C@@H](NC(=O)[C@@H](N)CC(N)=O)[C@@H](C)CC)C(=O)N[C@@H](CCSC)C(=O)N[C@@H](Cc1ccc(O)cc1)C(=O)N[C@@H](C)C(=O)N1CCC[C@H]1C(=O)N[C@H](C(=O)N[C@@H](CC(C)C)C(=O)O)[C@@H](C)O | 70 | 70
CC[C@H](C)[C@H](NC(=O)[C@@H](N)CCC(N)=O)C(=O)N[C@H](C(=O)NCC(=O)NCC(=O)N[C@H](C(=O)N[C@@H](Cc1ccc(O)cc1)C(=O)N[C@@H](CC(C)C)C(=O)N[C@@H](CC(C)C)C(=O)O)C(C)C)C(C)C | 228 | –
CC(C)C[C@H](NC(=O)[C@@H](NC(=O)[C@@H](NC(=O)[C@H](CC(C)C)NC(=O)[C@@H](N)CCCNC(=N)N)C(C)C)C(C)C)C(=O)N[C@@H](C)C(=O)N[C@H](C(=O)N[C@@H](C)C(=O)N[C@H](C(=O)O)[C@@H](C)O)[C@@H](C)O | – | 16700
CC[C@H](C)[C@H](NC(=O)[C@H](Cc1c[nH]cn1)NC(=O)[C@@H](NC(=O)[C@H](CC(C)C)NC(=O)CNC(=O)[C@@H](NC(=O)[C@H](Cc1ccccc1)NC(=O)[C@@H](NC(=O)[C@@H](N)CO)C(C)C)[C@@H](C)O)[C@@H](C)O)C(=O)O | – | 84
CC(C)C[C@H](NC(=O)[C@H](CC(C)C)NC(=O)[C@@H]1CCCN1C(=O)[C@@H](NC(=O)[C@@H]1CCCN1C(=O)CNC(=O)[C@H](Cc1c[nH]cn1)NC(=O)[C@H](CC(C)C)NC(=O)[C@@H](N)[C@@H](C)O)[C@@H](C)O)C(=O)O | 68 | 68
CC[C@H](C)[C@H](NC(=O)[C@H](CC(N)=O)NC(=O)CNC(=O)[C@H](CC(C)C)NC(=O)[C@@H](N)Cc1c[nH]c2ccccc12)C(=O)N[C@H](C(=O)N[C@@H](CCSC)C(=O)N[C@@H](Cc1ccc(O)cc1)C(=O)N[C@@H](C)C(=O)O)[C@@H](C)CC | – | 14.5
CC[C@H](C)[C@H](NC(=O)[C@@H](N)Cc1ccc(O)cc1)C(=O)N1CCC[C@H]1C(=O)N[C@@H](CC(C)C)C(=O)N[C@H](C(=O)NCC(=O)N[C@@H](C)C(=O)N1CCC[C@H]1C(=O)N[C@@H](CC(C)C)C(=O)O)C(C)C | 337 | 77
CC(C)C[C@H](NC(=O)[C@@H]1CCCN1C(=O)[C@H](Cc1c[nH]c2ccccc12)NC(=O)[C@@H]1CCCN1C(=O)[C@H](Cc1ccc(O)cc1)NC(=O)CNC(=O)[C@@H]1CCCN1C(=O)[C@H](CCC(N)=O)NC(=O)[C@H](C)N)C(=O)O (H-AQPGYPWPL-OH; N-terminus and C-terminus assumed) | – | 382
CC(C)C[C@H](NC(=O)[C@H](CCCNC(=N)N)NC(=O)[C@H](Cc1ccc(O)cc1)NC(=O)[C@@H]1CCCN1C(=O)[C@H](Cc1ccc(O)cc1)NC(=O)[C@H](CC(=O)O)NC(=O)[C@@H](NC(=O)[C@H](CC(C)C)NC(=O)[C@@H](N)CS)C(C)C)C(=O)O (H-CLVDYPYRL-OH; N-terminus and C-terminus assumed) | 437 | 437

Compound | IC50 [nM] | Ki [nM]
CC(C)C[C@H](NC(=O)[C@H](Cc1ccccc1)NC(=O)[C@@H](NC(=O)[C@H](CO)NC(=O)CNC(=O)[C@H](CS)NC(=O)[C@H](CC(C)C)NC(=O)[C@@H](N)CC(=O)O)C(C)C)C(=O)N[C@H](C(=O)O)C(C)C (H-DLCGSVFLV-OH; N-terminus and C-terminus assumed) | – | 789
CC[C@H](C)[C@H](NC(=O)[C@@H](N)Cc1ccccc1)C(=O)N1CCC[C@H]1C(=O)N[C@H](C(=O)N[C@@H](CCC(=O)O)C(=O)N[C@@H](CO)C(=O)N[C@@H](CCSC)C(=O)N[C@@H](CCC(=O)O)C(=O)N[C@H](C(=O)O)[C@@H](C)O)C(C)C (H-FIPVESMET-OH) | – | 934
CSCC[C@H](NC(=O)CN)C(=O)N[C@@H](Cc1ccccc1)C(=O)N[C@@H](CC(=O)O)C(=O)N[C@@H](CO)C(=O)N[C@@H](CO)C(=O)N[C@H](C(=O)N[C@@H](CC(C)C)C(=O)N[C@@H](CS)C(=O)O)C(C)C (H-GMFDSSVLC-OH) | 114 | 71
CC[C@H](C)[C@H](N)C(=O)N[C@@H](CCSC)C(=O)N[C@@H](C)C(=O)N[C@@H](CS)C(=O)N[C@@H](CCSC)C(=O)N[C@@H](CO)C(=O)N[C@@H](C)C(=O)N[C@@H](CC(=O)O)C(=O)N[C@@H](CC(C)C)C(=O)O (H-IMACMSADL-OH; N-terminus and C-terminus assumed) | 66 | 66
CC[C@H](C)[C@H](N)C(=O)N[C@@H](CCSC)C(=O)N[C@@H](C)C(=O)N[C@@H](CCCCN)C(=O)N[C@@H](CC(N)=O)C(=O)N[C@@H](CCC(=O)O)C(=O)N[C@H](C(=O)N[C@@H](Cc1ccccc1)C(=O)N[C@@H](CS)C(=O)N[C@H](C(=O)O)C(C)C)C(C)C (H-IMAKNEVFCV-OH; N-terminus and C-terminus assumed) | 199 | 199
CC(C)C[C@H](NC(=O)[C@@H](NC(=O)[C@H](CC(C)C)NC(=O)[C@@H](NC(=O)[C@@H](N)CCCCN)C(C)C)C(C)C)C(=O)N[C@@H](CC(N)=O)C(=O)N1CCC[C@H]1C(=O)N[C@@H](CO)C(=O)N[C@H](C(=O)O)C(C)C (H-KVLVLNPSV-OH) | 50 | 50
CSCC[C@H](N)C(=O)N[C@@H](C)C(=O)N[C@@H](CC(C)C)C(=O)N[C@@H](Cc1ccc(O)cc1)C(=O)N[C@@H](CC(=O)O)C(=O)N[C@H](C(=O)N[C@H](C(=O)N[C@@H](CO)C(=O)N[C@H](C(=O)O)[C@@H](C)O)C(C)C)C(C)C (H-MALYDVVST-OH; N-terminus and C-terminus assumed) | – | 1140
CC[C@H](C)[C@H](NC(=O)[C@H](CO)NC(=O)[C@H](Cc1ccccc1)NC(=O)[C@H](CO)NC(=O)[C@H](CS)NC(=O)CNC(=O)[C@@H]1CCCN1C(=O)[C@H](CC(C)C)NC(=O)[C@@H](N)CC(N)=O)C(=O)O (H-NLPGCSFSI-OH) | 83 | 70
CC[C@H](C)[C@H](NC(=O)[C@H](Cc1ccc(O)cc1)NC(=O)[C@H](CC(C)C)NC(=O)[C@@H](N)CCCNC(=N)N)C(=O)NCC(=O)NCC(=O)N1CCC[C@H]1C(=O)N[C@@H](CC(C)C)C(=O)N[C@H](C(=O)O)[C@@H](C)O (H-RLYIGGPLT-OH) | – | 536
CSCC[C@H](NC(=O)[C@@H](N)CO)C(=O)N[C@H](C(=O)NCC(=O)N[C@@H](CC(N)=O)C(=O)N[C@@H](Cc1c[nH]c2ccccc12)C(=O)N[C@@H](C)C(=O)N[C@@H](CCCCN)C(=O)N[C@H](C(=O)O)C(C)C)C(C)C (H-SMVGNWAKV-OH; N-terminus and C-terminus assumed) | 158 | 158
CC[C@H](C)[C@H](NC(=O)[C@H](Cc1c[nH]cn1)NC(=O)[C@@H](NC(=O)[C@H](CC(C)C)NC(=O)CNC(=O)[C@@H](NC(=O)[C@H](Cc1ccccc1)NC(=O)[C@@H](NC(=O)[C@@H](N)CO)C(C)C)[C@@H](C)O)[C@@H](C)CC)C(=O)O (H-SVFTGLIHI-OH) | 101 | –
CC(C)C[C@H](NC(=O)[C@@H](NC(=O)[C@H](CO)NC(=O)[C@@H](NC(=O)[C@@H](N)C(C)C)C(C)C)[C@@H](C)O)C(=O)N1CCC[C@H]1C(=O)N[C@@H](CCC(N)=O)C(=O)N[C@@H](C)C(=O)N[C@H](C(=O)O)C(C)C (H-VVSTLPQAV-OH; N-terminus and C-terminus assumed) | – | 884
CC(C)C[C@H](NC(=O)[C@@H](N)Cc1ccc(O)cc1)C(=O)N[C@@H](Cc1ccccc1)C(=O)N[C@@H](CC(N)=O)C(=O)N[C@@H](Cc1c[nH]c2ccccc12)C(=O)N[C@@H](C)C(=O)N[C@H](C(=O)N[C@@H](CCCNC(=N)N)C(=O)N[C@H](C(=O)O)[C@@H](C)O)C(C)C (H-YLFNWAVRT-OH; N-terminus and C-terminus assumed) | 29 | 29
CC(C)[C@H](NC(=O)[C@@H](NC(=O)[C@H](C)NC(=O)[C@H](CCC(N)=O)NC(=O)[C@@H](N)Cc1ccc(O)cc1)[C@@H](C)O)C(=O)N[C@@H](CS)C(=O)N[C@@H](C)C(=O)N[C@@H](CCCNC(=N)N)C(=O)N[C@@H](C)C(=O)O (H-YQATVCARA-OH) | 20 | 20
CC(C)C[C@H](NC(=O)[C@H](C)NC(=O)[C@H](CC(C)C)NC(=O)[C@H](CC(C)C)NC(=O)[C@H](CC(C)C)NC(=O)[C@H](CC(C)C)NC(=O)[C@H](CC(C)C)NC(=O)[C@H](CC(C)C)NC(=O)[C@@H]1CCCN1)C(=O)O [PLLLLLLAL] (H-PLLLLLLAL-OH) | – | 6550
